Common to all, as to format: cell-based
In experiment [1] the target is T1, human IGF-1R (NIH-3T3 cells over expressing human IGF-1R) (Homo sapiens, UniProt P08069).
T1 construct: expressed in transfected cells; host or cells: NIH-3T3 (mouse fibroblasts)
The experiment can be described thus: IGF-1R cellular autophosphorylation (DELFIA). As to conditions: IGF-1 stimulated. The essentials: (§1)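 Receptor-overexpressing NIH-3T3, 10% FBS, 37 °C; cpd 30 uM–1.5 nM × 2 h; stim IGF-1 30 ng/mL (IGF-1R) or insulin 3 ug/mL (IR), 15 min; lysate DELFIA, Eu anti-pTyr; % of stimulated signal.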

The target in experiment [2] is T2, IR (NIH-3T3 cells over expressing human IGF-1R or IR) (Homo sapiens, UniProt P06213).
T2 construct: expressed in transfected cells; host or cells: NIH-3T3 (mouse fibroblasts)
T2 sequence (P06213 28-1382): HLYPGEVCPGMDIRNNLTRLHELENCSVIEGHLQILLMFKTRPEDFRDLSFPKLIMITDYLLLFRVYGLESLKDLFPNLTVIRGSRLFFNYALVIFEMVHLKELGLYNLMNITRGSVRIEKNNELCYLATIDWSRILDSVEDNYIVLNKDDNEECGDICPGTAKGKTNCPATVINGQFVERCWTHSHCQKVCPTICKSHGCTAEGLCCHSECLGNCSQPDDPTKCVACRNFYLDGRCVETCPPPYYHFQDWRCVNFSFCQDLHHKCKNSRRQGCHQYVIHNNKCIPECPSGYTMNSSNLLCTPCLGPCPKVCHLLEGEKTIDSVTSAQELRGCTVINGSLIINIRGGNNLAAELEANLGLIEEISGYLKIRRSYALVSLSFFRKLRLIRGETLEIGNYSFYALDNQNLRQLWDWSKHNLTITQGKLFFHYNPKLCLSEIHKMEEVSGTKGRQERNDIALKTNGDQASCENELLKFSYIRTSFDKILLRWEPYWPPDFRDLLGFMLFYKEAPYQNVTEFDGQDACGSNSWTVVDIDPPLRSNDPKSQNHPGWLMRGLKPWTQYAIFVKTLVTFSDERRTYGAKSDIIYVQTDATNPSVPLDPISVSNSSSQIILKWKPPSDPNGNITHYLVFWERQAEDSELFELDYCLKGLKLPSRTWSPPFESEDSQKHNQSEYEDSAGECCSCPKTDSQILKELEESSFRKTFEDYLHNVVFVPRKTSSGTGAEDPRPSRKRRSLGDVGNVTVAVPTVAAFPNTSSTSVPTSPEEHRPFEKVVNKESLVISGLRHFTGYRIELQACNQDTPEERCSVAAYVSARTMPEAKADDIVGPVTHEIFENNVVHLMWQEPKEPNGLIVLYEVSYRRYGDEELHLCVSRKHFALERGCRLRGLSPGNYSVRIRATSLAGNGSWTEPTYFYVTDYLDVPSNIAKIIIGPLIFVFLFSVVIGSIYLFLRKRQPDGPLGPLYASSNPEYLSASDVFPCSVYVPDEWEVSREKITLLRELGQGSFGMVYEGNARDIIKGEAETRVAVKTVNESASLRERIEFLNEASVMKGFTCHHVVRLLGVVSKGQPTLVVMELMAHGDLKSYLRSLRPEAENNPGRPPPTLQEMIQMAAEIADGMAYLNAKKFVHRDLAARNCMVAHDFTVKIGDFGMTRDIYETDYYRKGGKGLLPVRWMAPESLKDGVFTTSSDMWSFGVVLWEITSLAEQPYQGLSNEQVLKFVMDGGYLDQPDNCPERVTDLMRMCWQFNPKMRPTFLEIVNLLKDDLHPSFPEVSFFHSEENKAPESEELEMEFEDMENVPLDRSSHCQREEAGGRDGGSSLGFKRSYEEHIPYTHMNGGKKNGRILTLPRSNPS
In words: IR cellular autophosphorylation (DELFIA). As to conditions: NIH-3T3 cells over expressing IR, insulin stimulated. The gist of the method:
as §1

In experiment [3] the test system is COLO205 (colon). In words: Inhibition of cell proliferation, CellTiter-Glo, COLO205. The conditions noted are these: Homo sapiens, COLO 205, 72 h. The gist of the method:
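Exponentially growing COLO205 cells in medium with 10% FBS were plated below 2000 cells/well at 37 °C, 5% CO2. Untreated wells served as controls.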
Background: In ATP-based viability assays light output follows the ATP content of the culture.

Experiment [4] deals with NCI-H929 (multiple myeloma). In words: Inhibition of cell proliferation, CellTiter-Glo, NCI-H929. The conditions noted are these: Homo sapiens, 72 h. The procedure:
C. Inhibition of Cell Proliferation
Cell proliferation was measured by either CellTiter-Glo (measures cellular ATP level as a surrogate for total cell number) or by InCell analyzer (counts number of nuclei as a measure of cell number). For CellTiter-Glo assay, exponentially growing cell lines of different tumor origins, cultured in appropriate media containing 10% fetal bovine serum at 37° C. in a 5% CO2 incubator, were plated at low density (less than 2000 cells/well) in 96-well plates. Twenty four hours post-plating, cells were treated with different concentrations of test compounds ranging from 30 uM to 1.5 nM. Several wells were left untreated as a control. Seventy two hours post-treatment, cell numbers were determined using 50-100 ul per well of CellTiter-Glo (Promega #G7573). Plates were incubated at 37° C. for 30 minutes and the chemiluminescent signal was read on the Victor V or Envison 2100 reader. […]

16 compounds from patent US20100216779A1 (GLAXOSMITHKLINE LLC, priority 2007, published 2010) can be followed below.

A value given as a limit tells only on which side of the number the result lay.

T1 sequence (P08069 31-1367): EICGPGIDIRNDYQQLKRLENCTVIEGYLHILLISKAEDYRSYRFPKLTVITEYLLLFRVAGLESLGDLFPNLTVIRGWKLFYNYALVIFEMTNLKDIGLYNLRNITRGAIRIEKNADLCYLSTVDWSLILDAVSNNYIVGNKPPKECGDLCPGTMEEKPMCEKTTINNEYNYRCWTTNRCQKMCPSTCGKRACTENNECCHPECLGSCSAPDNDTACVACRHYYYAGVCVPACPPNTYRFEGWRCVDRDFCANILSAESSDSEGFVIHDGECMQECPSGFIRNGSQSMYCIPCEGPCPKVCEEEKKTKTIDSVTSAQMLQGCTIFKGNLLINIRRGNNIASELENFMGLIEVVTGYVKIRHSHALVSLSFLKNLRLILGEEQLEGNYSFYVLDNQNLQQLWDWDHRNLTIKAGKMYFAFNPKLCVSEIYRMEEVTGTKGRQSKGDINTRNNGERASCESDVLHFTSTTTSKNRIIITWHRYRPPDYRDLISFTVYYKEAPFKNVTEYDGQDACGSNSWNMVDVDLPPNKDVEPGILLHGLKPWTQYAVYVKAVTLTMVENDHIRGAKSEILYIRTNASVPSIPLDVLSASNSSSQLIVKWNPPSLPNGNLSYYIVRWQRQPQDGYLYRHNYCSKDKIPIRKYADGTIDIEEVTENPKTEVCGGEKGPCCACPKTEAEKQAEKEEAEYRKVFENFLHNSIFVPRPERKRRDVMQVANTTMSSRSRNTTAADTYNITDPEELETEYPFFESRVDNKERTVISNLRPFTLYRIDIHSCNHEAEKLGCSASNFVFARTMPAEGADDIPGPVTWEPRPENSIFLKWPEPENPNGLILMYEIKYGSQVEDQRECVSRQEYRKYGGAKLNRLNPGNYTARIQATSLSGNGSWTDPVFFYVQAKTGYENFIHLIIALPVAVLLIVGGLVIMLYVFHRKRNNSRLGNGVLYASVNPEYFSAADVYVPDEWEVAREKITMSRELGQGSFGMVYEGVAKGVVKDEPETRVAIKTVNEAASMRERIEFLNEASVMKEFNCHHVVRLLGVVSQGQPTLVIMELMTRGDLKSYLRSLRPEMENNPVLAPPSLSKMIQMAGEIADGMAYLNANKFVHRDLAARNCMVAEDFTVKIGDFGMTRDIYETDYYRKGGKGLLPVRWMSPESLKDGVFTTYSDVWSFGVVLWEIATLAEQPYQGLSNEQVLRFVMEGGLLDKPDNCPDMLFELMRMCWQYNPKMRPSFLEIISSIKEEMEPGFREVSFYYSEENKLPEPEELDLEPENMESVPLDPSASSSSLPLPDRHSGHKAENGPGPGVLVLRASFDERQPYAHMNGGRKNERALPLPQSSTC

What is called IC50 is the concentration that inhibits the measured activity by half. Low values mean higher potency, high ones lower potency. In the case of `COCCN(CCOC)C1CCN(c2ccc(Nc3nccc(-c4c(-c5cccc(C(=O)Nc6c(F)cccc6F)c5)nc5ccccn45)n3)c(OC)c2)CC1` [Example 49, 3-[3-(2-{[4-(4-{bis[2-(methyloxy)ethyl]amino}-1-piperidinyl)-2-(methyloxy)phenyl]amino}-4-pyrimidinyl)imidazo[1,2-a]pyridin-2-yl]-N-(2,6-difluorophenyl)benzamide], the IC50 was 100 to 500 nM in experiment [1], less than 100 nM in experiment [2], 250 to 1000 nM in experiment [3] and 250 to 1000 nM in experiment [4].

As for `COc1cc(N2CCC(N3CCN4CCOC[C@@H]4C3)CC2)ccc1Nc1nccc(-c2c(-c3cccc(C(=O)Nc4c(F)cccc4F)c3)nc3ccccn23)n1` [Example 87, N-(2,6-difluorophenyl)-3-[3-(2-{[4-{4-[(9aS)-hexahydropyrazino[2,1-c][1,4]oxazin-8(1H)-yl]-1-piperidinyl}-2-(methyloxy)phenyl]amino}-4-pyrimidinyl)imidazo[1,2-a]pyridin-2-yl]benzamide], the IC50 is less than 100 nM in experiment [1], less than 100 nM in experiment [2], 250 to 1000 nM in experiment [3] and less than 250 nM in experiment [4].

As to `COCCN1CCN(c2ccc(Nc3nccc(-c4c(-c5ccc(OC)c(C(=O)Nc6c(F)cccc6F)c5)nc5ccccn45)n3)c(OC)c2)CC1` [Example 239, N-(2,6-difluorophenyl)-2-(methyloxy)-5-(3-{2-[(2-(methyloxy)-4-{4-[2-(methyloxy)ethyl]-1-piperazinyl}phenyl)amino]-4-pyrimidinyl}imidazo[1,2-a]pyridin-2-yl)benzamide], the IC50 is less than 100 nM in experiment [1], less than 100 nM in experiment [2], 250 to 1000 nM in experiment [3] and less than 250 nM in experiment [4].

With `CCOc1ccc(-c2nc3ccccn3c2-c2ccnc(Nc3cc(C)c(N4CCCN(CCS(C)(=O)=O)CC4)cc3OC)n2)cc1C(=O)Nc1c(F)cccc1F` [Example 203, N-(2,6-difluorophenyl)-2-(ethyloxy)-5-(3-{2-[(5-methyl-2-(methyloxy)-4-{4-[2-(methylsulfonyl)ethyl)hexahydro-1H-1,4-diazepin-1-yl]phenyl)amino]-4-pyrimidinyl}imidazo[1,2-a]pyridin-2-yl)benzamide], the IC50 in experiment [1] is less than 100 nM; in experiment [2], less than 100 nM; in experiment [3], less than 250 nM; in experiment [4] it was less than 250 nM.

Regarding `COc1cc(N2CCN(S(C)(=O)=O)CC2)c(C)cc1Nc1nccc(-c2c(-c3cccc(C(=O)Nc4c(F)cccc4F)c3)nc3ccccn23)n1` [Example 226, N-(2,6-difluorophenyl)-3-{3-[2-({5-methyl-2-(methyloxy)-4-[4-(methylsulfonyl)-1-piperazinyl]phenyl}amino)-4-pyrimidinyl]imidazo[1,2-a]pyridin-2-yl}benzamide], the half-maximal inhibitory concentration (IC50) was less than 100 nM in experiment [1], less than 100 nM in experiment [2], less than 250 nM in experiment [3] and less than 250 nM in experiment [4].

Consider `COc1cc(N2CCC(N3CCN(C(C)=O)CC3)CC2)ccc1Nc1nccc(-c2c(-c3cccc(C(=O)Nc4c(F)cccc4F)c3)nc3ccccn23)n1` [Example 70], for which the IC50 was less than 100 nM in experiment [1], less than 100 nM in experiment [2], 250 to 1000 nM in experiment [3] and less than 250 nM in experiment [4].

Take `COc1cc(N2CCC(N3CCCCC3)CC2)ccc1Nc1nccc(-c2c(-c3cccc(C(=O)Nc4c(F)cccc4F)c3)nc3c(F)cccn23)n1` [Example 190, 3-[3-(2-{[4-(1,4′-bipiperidin-1-yl)-2-(methyloxy)phenyl]amino}-4-pyrimidinyl)-8-fluoroimidazo[1,2-a]pyridin-2-yl]-N-(2,6-difluorophenyl)benzamide]: the IC50 was less than 100 nM in experiment [1], 100 to 500 nM in experiment [2], 250 to 1000 nM in experiment [3] and 250 to 1000 nM in experiment [4].

For `CCOc1ccc(-c2nc3ccccn3c2-c2ccnc(Nc3ccc(N4CCN(S(C)(=O)=O)CC4)cc3OC)n2)cc1C(=O)Nc1c(F)cccc1F` [Example 232, N-(2,6-difluorophenyl)-2-(ethyloxy)-5-{3-[2-({2-(methyloxy)-4-[4-(methylsulfonyl)-1-piperazinyl]phenyl]amino)-4-pyrimidinyl]imidazo[1,2-a]pyridin-2-yl}benzamide], the IC50 in experiment [1] was less than 100 nM; in experiment [2], less than 100 nM; in experiment [3], less than 250 nM; in experiment [4] it was less than 250 nM.

Turning to `CCc1cc(Nc2nccc(-c3c(-c4ccc(OC)c(C(=O)Nc5c(F)cccc5F)c4)nc4ccccn34)n2)c(OC)cc1N1CCC(CCS(C)(=O)=O)CC1` [Example 207, N-(2,6-difluorophenyl)-5-(3-{2-[(5-ethyl-2-(methyloxy)-4-{4-[2-(methylsulfonyl)ethyl]-1-piperidinyl}phenyl)amino]-4-pyrimidinyl}imidazo[1,2-a]pyridin-2-yl)-2-(methyloxy)benzamide], the 50% inhibitory concentration (IC50) in experiment [1] was less than 100 nM; in experiment [2] it was less than 100 nM; in experiment [3] it was less than 250 nM; in experiment [4], less than 250 nM.

Consider `CCOc1cc(N2CCN(CCS(C)(=O)=O)CC2)c(C)cc1Nc1nccc(-c2c(-c3cccc(C(=O)Nc4c(F)cccc4F)c3)nc3ccccn23)n1` [Example 246, N-(2,6-difluorophenyl)-3-(3-{2-[(2-(ethyloxy)-5-methyl-4-{4-[2-(methylsulfonyl)ethyl]-1-piperazinyl}phenyl)amino]-4-pyrimidinyl}imidazo[1,2-a]pyridin-2-yl)benzamide], for which the IC50 in experiment [1] was less than 100 nM; in experiment [2], less than 100 nM; in experiment [3], less than 250 nM; in experiment [4], less than 250 nM.

`CN(C)CCOc1cccc(Nc2nccc(-c3c(-c4cccc(C(=O)Nc5c(F)cc(F)cc5F)c4)nc4ccccn34)n2)c1` [Example 12, 3-(3-{2-[(3-{[2-(dimethylamino)ethyl]oxy}phenyl)amino]-4-pyrimidinyl}imidazo[1,2-a]pyridin-2-yl)-N-(2,4,6-trifluorophenyl)benzamide]: the IC50 was 100 to 500 nM in experiment [1], 250 to 1000 nM in experiment [3] and less than 250 nM in experiment [4].

In the case of `COc1cc(N2CCC(CCS(C)(=O)=O)CC2)c(C)cc1Nc1nccc(-c2c(-c3cccc(C(=O)Nc4c(F)cccc4F)c3)nc3ccccn23)n1` [Example 231, N-(2,6-difluorophenyl)-3-(3-{2-[(5-methyl-2-(methyloxy)-4-{4-[2-(methylsulfonyl)ethyl]-1-piperidinyl}phenyl)amino]-4-pyrimidinyl}imidazo[1,2-a]pyridin-2-yl)benzamide], the IC50 in experiment [1] is less than 100 nM; in experiment [2], less than 100 nM; in experiment [4], less than 250 nM.

Take `COc1cc(N2CCC(CCS(C)(=O)=O)CC2)c(C)cc1Nc1nccc(-c2c(-c3ccc(OC)c(C(=O)Nc4c(F)cccc4F)c3)nc3cc(F)ccn23)n1` [Example 220, N-(2,6-difluorophenyl)-5-(7-fluoro-3-{2-[(5-methyl-2-(methyloxy)-4-{4-[2-(methylsulfonyl)ethyl]-1-piperidinyl}phenyl)amino]-4-pyrimidinyl}imidazo[1,2-a]pyridin-2-yl)-2-(methyloxy)benzamide]: the IC50 in experiment [3] is 250 to 1000 nM; in experiment [4], less than 250 nM.

In the case of `COc1cc(C2CCN(CCS(C)(=O)=O)CC2)ccc1Nc1nccc(-c2c(-c3ccc(OC)c(C(=O)Nc4c(F)cccc4F)c3)nc3ccccn23)n1` [Example 181, N-(2,6-difluorophenyl)-2-(methyloxy)-5-(3-{2-[(2-(methyloxy)-4-{1-[2-(methylsulfonyl)ethyl]-4-piperidinyl}phenyl)amino]-4-pyrimidinyl}imidazo[1,2-a]pyridin-2-yl)benzamide], the figures for the IC50 in experiment [3] and in experiment [4] were 250 to 1000 nM and less than 250 nM, respectively.

Regarding `COc1cc(N2CCC(CCS(C)(=O)=O)CC2)ccc1Nc1nccc(-c2c(-c3ccc(OC)c(C(=O)Nc4c(F)cccc4F)c3)nc3cc(F)ccn23)n1` [Example 216, N-(2,6-difluorophenyl)-5-(7-fluoro-3-{2-[(2-(methyloxy)-4-{4-[2-(methylsulfonyl)ethyl]-1-piperidinyl}phenyl)amino]-4-pyrimidinyl}imidazo[1,2-a]pyridin-2-yl)-2-(methyloxy)benzamide], the IC50 in experiment [3] was 250 to 1000 nM; in experiment [4], less than 250 nM.

As to `CCOc1cc(C2CCN(CCS(C)(=O)=O)CC2)ccc1Nc1nccc(-c2c(-c3ccc(OC)c(C(=O)Nc4c(F)cccc4F)c3)nc3ccccn23)n1` [Example 184, N-(2,6-difluorophenyl)-5-(3-{2-[(2-(ethyloxy)-4-{1-[2-(methylsulfonyl)ethyl]-4-piperidinyl}-phenyl)amino]-4-pyrimidinyl}imidazo[1,2-a]pyridin-2-yl)-2-(methyloxy)benzamide], the IC50 in experiment [3] and in experiment [4] was less than 250 nM each time.
